Measured values: ChEMBL document CHEMBL1201862, “PubChem BioAssay data set” (2004)
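Five compound concentrations were applied to cells in 96-well plates for 48 hours; endpoints were derived by simple linear interpolation of the resulting dose-response curve. The concentration for 50% growth inhibition is given as GI50.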 Active and inactive are the calls of the source. No stated cut-off is given here; in the data, active = GI50 up to about 1.1 µM and inactive = higher.

Legend:
Experiment in all cases: NCI-60 cell line screen, 48 h
LOX IMVI = system: LOX IMVI
M14 = system: M14
RXF 393 = system: RXF 393
K562 = system: K562
M19-MEL = system: M19-MEL
UACC-62 = system: UACC-62
HOP-62 = system: HOP-62
OVCAR-4 = system: OVCAR-4
SR = system: SR
U-251 = system: U-251
IGROV-1 = system: IGROV-1
HCT-116 = system: HCT-116
NCI-H522 = system: NCI-H522
OVCAR-8 = system: OVCAR-8
786-0 = system: 786-0
UACC-257 = system: UACC-257
HCC 2998 = system: HCC 2998
RPMI-8226 = system: RPMI-8226

Compound | GI50 (LOX IMVI) | GI50 (M14) | GI50 (RXF 393) | GI50 (K562) | GI50 (M19-MEL) | GI50 (UACC-62) | GI50 (HOP-62) | GI50 (OVCAR-4) | GI50 (SR) | GI50 (U-251) | GI50 (IGROV-1) | GI50 (HCT-116) | GI50 (NCI-H522) | GI50 (OVCAR-8) | GI50 (786-0) | GI50 (UACC-257) | GI50 (HCC 2998) | GI50 (RPMI-8226)
O=c1[nH]c(-c2ccc(-c3nc4cc([N+](=O)[O-])ccc4c(=O)[nH]3)cc2)nc2cc([N+](=O)[O-])ccc12 | > 100 µM (inactive) | > 100 µM (inactive) | > 100 µM (inactive) | > 100 µM (inactive) | > 100 µM (inactive) | > 100 µM (inactive) | > 100 µM (inactive) | 48.8 µM (inactive) | > 100 µM (inactive) | > 100 µM (inactive) | > 100 µM (inactive) | > 100 µM (inactive) | > 100 µM (inactive) | > 100 µM (inactive) | 72.9 µM (inactive) | > 100 µM (inactive) | > 100 µM (inactive) | > 100 µM (inactive)
CC(C)(C)c1cc2c(OP(c3ccccc3)c3ccccc3)c(c1)Cc1cc(C(C)(C)C)cc(c1OP(c1ccccc1)c1ccccc1)Cc1cc(C(C)(C)C)cc(c1OP(c1ccccc1)c1ccccc1)Cc1cc(C(C)(C)C)cc(c1OP(c1ccccc1)c1ccccc1)C2 | > 5 µM (inactive) | > 5 µM (inactive) | 19.8 µM (inactive) | > 5 µM (inactive) | > 5 µM (inactive) | > 5 µM (inactive) | > 5 µM (inactive) | > 5 µM (inactive) | 2.66 µM (inactive) | > 5 µM (inactive) | > 5 µM (inactive) | > 5 µM (inactive) | > 5 µM (inactive) | > 5 µM (inactive) | > 5 µM (inactive) | > 5 µM (inactive) | > 5 µM (inactive) | > 5 µM (inactive)
COC(=O)C12Oc3ccc(-c4ccc5c(c4O)C(=O)C4=CCC(C)C(O)C4(C(=O)OC)O5)c(O)c3C(=O)C1=CCC(C)C2O (configuration not stated) | 1.49 µM (inactive) | 1.63 µM (inactive) | 1.63 µM (inactive) | 3.77 µM (inactive) | 1.48 µM (inactive) | 1.29 µM (inactive) | 2.18 µM (inactive) | 2.21 µM (inactive) | 0.843 µM (active) | 1.59 µM (inactive) | 1.62 µM (inactive) | 0.925 µM (active) | 1.01 µM (active) | 0.964 µM (active) | 1.53 µM (inactive) | 1.82 µM (inactive) | 1.31 µM (inactive) | 0.897 µM (active)
C[C@@H](O)CCC(=O)c1ccoc1 | > 100 µM (inactive) | > 100 µM (inactive) | > 100 µM (inactive) | > 100 µM (inactive) | > 100 µM (inactive) | > 100 µM (inactive) | > 100 µM (inactive) | > 100 µM (inactive) | > 84.3 µM (inactive) | > 100 µM (inactive) | > 100 µM (inactive) | > 100 µM (inactive) | > 100 µM (inactive) | > 100 µM (inactive) | > 100 µM (inactive) | > 100 µM (inactive) | > 100 µM (inactive) | > 100 µM (inactive)
COC(=O)n1c(C[P+](c2ccccc2)(c2ccccc2)c2ccccc2)cc2ccccc21 | 1.07 µM (active) | 1.13 µM (inactive) | 3.43 µM (inactive) | 0.438 µM (active) | 0.452 µM (active) | 2.77 µM (inactive) | 1.73 µM (inactive) | 5.92 µM (inactive) | 2.67 µM (inactive) | 2.81 µM (inactive) | 0.664 µM (active) | 1.11 µM (active) | 1 µM (active) | 0.566 µM (active) | 2.41 µM (inactive) |  | 1.15 µM (inactive) | 0.352 µM (active)
COc1ccc(C(=O)C2CCC(C(=O)O)C2)cc1 (configuration not stated) | > 100 µM (inactive) | > 100 µM (inactive) | > 100 µM (inactive) | > 100 µM (inactive) | > 100 µM (inactive) | > 100 µM (inactive) | > 100 µM (inactive) | > 100 µM (inactive) | > 100 µM (inactive) | > 100 µM (inactive) | > 100 µM (inactive) | > 100 µM (inactive) | > 100 µM (inactive) | > 100 µM (inactive) | > 100 µM (inactive) | > 100 µM (inactive) | > 100 µM (inactive) | > 100 µM (inactive)
